In ChEMBL document CHEMBL6087416, “Discovery of novel fused-heterocycle-bearing diarypyrimidine derivatives as HIV-1 potent NNRTIs targeting tolerant region I for enhanced antiviral activity and resistance profile” (Eur J Med Chem, 2025):

How the values were obtained:
[1] = system: Human immunodeficiency virus 1; assay: microbe, parasite or virus in culture; details: Human immunodeficiency virus 1, IIIB, MT4, 120 h
Description: Antiviral activity against wild type HIV-1 IIIB infected in human MT4 cells assessed as protection against virus-induced cytopathic effect incubated for 5 days by MTT assay

[2] = system: Human immunodeficiency virus 2; assay: Antiviral activity against HIV-2 ROD infected in human MT4 cells assessed as protection against virus-induced cytopathic effect incubated for 5 days by MTT assay; type: functional, organism-based; details: Human immunodeficiency virus 2, ROD, MT4, 120 h
[3] = system: Human immunodeficiency virus 1; type: functional, organism-based; details: Human immunodeficiency virus 1, RES056, MT4, 120 h
in vitro [4] = details: human, MT4 cells
Description: Selectivity index, ratio of CC50 for human MT4 cells to EC50 for wild type HIV-1 IIIB infected in human MT4 cells

[5] = Cytotoxicity against human MT4 cells assessed as reduction in cell viability measured after 5 days by MTT assay; type: toxicity, cell-based; details: time 5 day
[6] = target: Human immunodeficiency virus type 1 reverse transcriptase (Human immunodeficiency virus 1, UniProt Q72547); assay: Inhibition of wild type HIV-1 Reverse transcriptase incubated for 1 hrs by ELISA analysis
[7] = system: Human immunodeficiency virus 1; assay: Antiviral activity against NNRTI-resistant HIV-1 harboring RT L100I mutant infected in human MT4 cells assessed as protection against virus-induced cytopathic effect incubated for 5 days by MTT assay; type: functional, organism-based; details: Human immunodeficiency virus 1, MT4, 120 h
[8] = system: Human immunodeficiency virus 1; type: functional, organism-based; details: Human immunodeficiency virus 1, MT4, 120 h
in vitro [9] = details: human, MT4 cells; remark: listed apart in the source
Description: Selectivity index, ratio of CC50 for human MT4 cells to EC50 for HIV-1 RES056 harboring RT K103N/Y181C mutant infected in human MT4 cells

[10] = system: Human immunodeficiency virus 1; type: functional, organism-based; details: Human immunodeficiency virus 1, MT4, 120 h; remark: listed apart in the source
[11] = system: Human immunodeficiency virus 1; assay: Antiviral activity against NNRTI-resistant HIV-1 harboring RT E138K mutant infected in human MT4 cells assessed as protection against virus-induced cytopathic effect incubated for 5 days by MTT assay; type: functional, organism-based; details: Human immunodeficiency virus 1, MT4, 120 h
[12] = system: Human immunodeficiency virus 1; type: functional, organism-based; details: Human immunodeficiency virus 1, MT4, 120 h; remark: listed apart in the source
[13] = system: Human immunodeficiency virus 1; assay: Antiviral activity against NNRTI-resistant HIV-1 harboring RT K103N mutant infected in human MT4 cells assessed as protection against virus-induced cytopathic effect incubated for 5 days by MTT assay; type: functional, organism-based; details: Human immunodeficiency virus 1, MT4, 120 h

Row | SMILES | EC50 [1] | EC50 [2] | EC50 [3] | selectivity ratio (in vitro [4]) | CC50 at 120 h [5] | IC50 [6] | EC50 [7] | EC50 [8] | selectivity ratio (in vitro [9]) | EC50 [10] | EC50 [11] | EC50 [12] | EC50 [13]
1 | Cc1cc(/C=C/C#N)cc(C)c1Oc1ccnc(Nc2ccc3sccc3c2)n1 | 8 nM | > 1710 nM | > 1710 nM | 221 | 1710 nM | 45 nM | – | – | – | – | – | – | –
2 | Cc1cc(/C=C/C#N)cc(C)c1Oc1ccnc(Nc2ccc3nc(C#N)sc3c2)n1 | 61 nM | > 81600 nM | > 81600 nM | 1330 | 81600 nM | 1130 nM | – | – | – | – | – | – | –
3 | Cc1cc(/C=C/C#N)cc(C)c1Oc1ccnc(Nc2ccc3c(c2)COC3)n1 | 2 nM | > 14000 nM | 1080 nM | 7440 | 14000 nM | 29 nM | 47 nM | 99 nM | 573 | 700 nM | 39 nM | 4900 nM | 6 nM
4 | Cc1nc2cc(Nc3nccc(Oc4c(C)cc(/C=C/C#N)cc4C)n3)ccc2o1 | 8 nM | > 1000 nM | > 1000 nM | 129 | 1000 nM | 53 nM | – | – | – | – | – | – | –
5 | Cc1cc(/C=C/C#N)cc(C)c1Oc1ccnc(Nc2ccc3c(c2)CCN(C(=O)CS(C)(=O)=O)C3)n1 | 9 nM | > 5950 nM | > 5950 nM | 642 | 5950 nM | 120 nM | – | – | – | – | – | – | –
6 | Cc1cc(/C=C/C#N)cc(C)c1Oc1ccnc(Nc2ccc3c(C)cc(=O)oc3c2)n1 | 18 nM | > 47100 nM | > 47100 nM | > 2590 | > 47100 nM | 78 nM | – | – | – | – | – | – | –
7 | Cc1cc(/C=C/C#N)cc(C)c1Oc1ccnc(Nc2ccc3ncsc3c2)n1 | 9 nM | > 46000 nM | 2870 nM | 5140 | 46000 nM | 70 nM | – | – | 16 | – | – | – | –
8 | COP(=O)(OC)N1CCc2ccc(Nc3nccc(Oc4c(C)cc(/C=C/C#N)cc4C)n3)cc2C1 | 120 nM | > 7010 nM | > 7010 nM | 58 | 7010 nM | 630 nM | – | – | – | – | – | – | –
9 | Cc1cc(/C=C/C#N)cc(C)c1Oc1ccnc(Nc2ccc3c(c2)CN(C(=O)CS(C)(=O)=O)CC3)n1 | 17 nM | > 8640 nM | > 8640 nM | 524 | 8640 nM | 230 nM | – | – | 1 | – | – | – | –
10 | Cc1cc(/C=C/C#N)cc(C)c1Oc1ccnc(Nc2ccc3c(c2)CN(S(C)(=O)=O)CC3)n1 | 6 nM | > 4950 nM | > 4950 nM | 791 | 4950 nM | 78 nM | – | – | – | – | – | – | –
11 | Cc1cc(/C=C/C#N)cc(C)c1Oc1ccnc(Nc2ccc3c(c2)CN(C)C3=O)n1 | 31 nM | > 40400 nM | > 40400 nM | 1290 | 40400 nM | 630 nM | – | – | – | – | – | – | –
12 | Cc1cc(/C=C/C#N)cc(C)c1Oc1ccnc(Nc2ccc3c(c2)CN(S(N)(=O)=O)CC3)n1 | 16 nM | > 11600 nM | 6470 nM | 743 | 11600 nM | 110 nM | – | – | 2 | – | – | – | –
13 | Cc1cc(/C=C/C#N)cc(C)c1Oc1ccnc(Nc2ccc3c(c2)OCCO3)n1 | 14 nM | > 12100 nM | > 12100 nM | 855 | 12100 nM | 50 nM | – | – | – | – | – | – | –
14 | Cc1cc(/C=C/C#N)cc(C)c1Oc1ccnc(Nc2ccc3c(c2)CCN(CCS(C)(=O)=O)C3)n1 | 19 nM | > 4770 nM | > 4770 nM | 256 | 4770 nM | 170 nM | – | – | – | – | – | – | –
15 | Cc1cc(/C=C/C#N)cc(C)c1Oc1ccnc(Nc2ccc3c(C(F)(F)F)cc(=O)oc3c2)n1 | 76 nM | > 185000 nM | > 185000 nM | 2420 | 185000 nM | 230 nM | – | – | – | – | – | – | –
16 | Cc1nc2cc(Nc3nccc(Oc4c(C)cc(/C=C/C#N)cc4C)n3)ccc2s1 | 12 nM | > 5310 nM | > 5310 nM | 431 | 5310 nM | 77 nM | – | – | – | – | – | – | –
17 | Cc1cc(/C=C/C#N)cc(C)c1Oc1ccnc(Nc2ccc3c(c2)C(=O)NC3)n1 | 6 nM | > 103000 nM | > 103000 nM | 16000 | 103000 nM | 58 nM | – | – | – | – | – | – | –
18 | Cc1cc(/C=C/C#N)cc(C)c1Oc1ccnc(Nc2ccc3c(c2)OC(F)(F)O3)n1 | 20 nM | > 19200 nM | 5310 nM | 966 | 19200 nM | 90 nM | – | – | 4 | – | – | – | –
19 | Cc1cc(/C=C/C#N)cc(C)c1Oc1ccnc(Nc2ccc(N3CCN(S(C)(=O)=O)CC3)c(C#N)c2)n1 | 1 nM | > 10200 nM | 93 nM | 7170 | 10200 nM | – | 4 nM | 6 nM | 110 | 10 nM | 6 nM | 740 nM | 2 nM
20 | Cc1cc(/C=C/C#N)cc(C)c1Oc1ccnc(Nc2ccc3c(c2)CCN(S(C)(=O)=O)C3)n1 | 7 nM | > 6630 nM | > 6630 nM | 970 | 6630 nM | 100 nM | – | – | – | – | – | – | –
21 | Cc1cc(/C=C/C#N)cc(C)c1Oc1ccnc(Nc2ccc3c(c2)CN(CC#N)CC3)n1 | 37 nM | > 5850 nM | > 5850 nM | 159 | 5850 nM | 250 nM | – | – | – | – | – | – | –
22 | Cc1cc(/C=C/C#N)cc(C)c1Oc1ccnc(Nc2ccc3c(c2)CCN(S(N)(=O)=O)C3)n1 | 8 nM | > 6240 nM | > 6240 nM | 748 | 6240 nM | 55 nM | – | – | – | – | – | – | –
23 | Cc1cc(/C=C/C#N)cc(C)c1Oc1ccnc(Nc2ccc3oncc3c2)n1 | 7 nM | > 17600 nM | 4150 nM | 2640 | 17600 nM | 65 nM | – | – | 4 | – | – | – | –
24 | COP(=O)(OC)N1CCc2cc(Nc3nccc(Oc4c(C)cc(/C=C/C#N)cc4C)n3)ccc2C1 | 8 nM | > 4180 nM | > 4180 nM | 515 | 4180 nM | 170 nM | – | – | – | – | – | – | –
25 | Cc1cc(/C=C/C#N)cc(C)c1Oc1ccnc(Nc2ccc3c(cnn3C)c2)n1 | 3 nM | > 50400 nM | > 50400 nM | > 18200 | > 50400 nM | 45 nM | 92 nM | 180 nM | – | > 50400 nM | 54 nM | > 50400 nM | 18 nM
26 | O=C1Nc2ccc(Cl)cc2[C@@](C#CC2CC2)(C(F)(F)F)O1 [EFAVIRENZ] | – | > 6340 nM | – | – | > 6340 nM | – | – | 9 nM | – | – | 9 nM | – | –
27 | Cc1cc(C#N)cc(C)c1Oc1nc(Nc2ccc(C#N)cc2)nc(N)c1Br [ETRAVIRINE] | – | > 4590 nM | 32 nM | – | > 4590 nM | – | – | – | – | 17 nM | – | 31 nM | –
28 | Cc1ccnc2c1NC(=O)c1cccnc1N2C1CC1 [NEVIRAPINE] | 130 nM | > 9510 nM | > 9510 nM | – | > 9510 nM | – | – | 5830 nM | – | > 9510 nM | – | > 9510 nM | 5220 nM
